Data published in patent US10072051B2, “Anti-inflammatory lipopeptide and preparing method and application thereof” (EAST CHINA NORMAL UNIVERSITY, priority 2012, dated 2018).
Entries after “also recorded” stand apart in the source; their conditions may differ.

How the values were obtained:
Format in all cases: cell-based
β-catenin = β-catenin translocation into the nucleus in NHEKs; conditions: LiCl, nucleocytoplasmic separation
NHEKs = experiment: poly(I:C)-induced TNF-α and IL-6 expression in NHEKs, real-time RT-PCR
Protocol: NHEKs were seeded in 24-well plates to grow to 70˜80% confluence, 2 ug/ml poly(I:C) were added. Different concentrations of the lipopeptide as Formula (1) in Example 1 were used to treat NHEKs. After 24 h, total RNA was extracted and cDNA was generated to detect the TNF-α and IL-6 expression by using real-time RT-PCR. […]

keratinocytes (NHEK) = experiment: OVA-stimulated keratinocytes (NHEK), real-time RT-PCR; conditions: NHEKs treated with PPARγ inhibitor
Protocol: To mimics the condition of atopic dermatitis keratinocytes was stimulated by ovalbumin (OVA). To test the inhibitory effect of the lipopeptide on inflammatory response in atopic dermatitis, PBS, OVA, lipopeptide, lipopeptide plus OVA were used to stimulate keratinocytes (NHEK) and RNA was extracted after 24-hour stimulation. The expression of TNF-α and IL-6 was analyzed by real-time RT-PCR.

p65 [1] = experiment: p65 phosphorylation in NHEKs, Western blot; conditions: poly(I:C) alone, 4 hours and 12 hours
Protocol: NHEKs were treated with PBS, poly(I:C), lipopeptide, poly(I:C) with lipopeptide for 4 hours or 12 hours. And then RIPA lysate was added to lyse the cell. The protein concentration was detected by using BCA protein assay kit, and 40 ug of proteins were separated by SDS-PAGE. The effects of the lipopeptide on p65 phosphorylation were detected by Western blot.

PPAR-γ and p65 = experiment: interaction between PPAR-γ and p65 in NHEKs, co-immunoprecipitation; conditions: poly(I:C) 4 hours or 12 hours, immunoprecipitation with p65 antibody
Protocol: Example 4 illustrates that poly(I:C) can induce p65 phosphorylation and translocation, and poly(I:C) induces the inflammatory response through PPAR-γ. The aim of Example 5 is to illustrate the interaction between the translocated p65 and PPAR-γ in the nucleus. NHEKs were treated with poly(I:C) for 4 hours or 12 hours. Whole-cell extracts were prepared by using lysis buffer containing NP40 and incubated with the p65 antibody at 4° C. for overnight. Protein AG beads were added and incubated at 4° C. for 1-2 hours. Beads were then washed twice with washing buffer. The immunoprecipitates were eluted with 20 ul 2× sodium dodecyl sulfate (SDS) loading buffer and separated by PAGE. The proteins were transferred to nitrocellulose membrane and probed with PPAR-γ antibody.

p65 [2] = experiment: p65 translocation into the nucleus in NHEKs (immunofluorescence, Western blot of nuclear proteins); conditions: poly(I:C) alone; for p65 translocation into the nucleus: immunofluorescence
Protocol: NHEKs were treated with PBS or poly(I:C) for 4 hours, and fixed with formaldehyde for 15 min followed by adding ice-cold 0.25% TritonX-100 and hydrogen peroxide. Cells were incubated with anti-p65 antibody at 4° C. for overnight after blocked with BSA for 0.5 hour. Next day, the cells were incubated with the second antibody (FITC-goat anti Rabbit IgG) and visualized under the microscope.
NHEKs were treated with PBS, lipopeptide, poly(I:C) with or without lipopeptide for 12 hours, and fixed with formaldehyde for 15 min followed by adding ice-cold 0.25% TritonX-100 and hydrogen peroxide. Cells were stained with anti-p65 antibody for overnight after blocked with BSA for 0.5 h. Then the cells were incubated with the second antibody (FITC-goat anti Rabbit IgG) and visualized under the microscope.
NHEKs were treated with PBS, poly(I:C), lipopeptide, poly(I:C) with lipopeptide for 12 hours. Proteins from nucleus were isolated and separated by PAGE. The p65 in the nucleus was detected by Western blot. […] Thus the lipopeptide has no effect on poly(I:C)-induced p65 translocation into the nucleus.

[3] = NHEKs treated with poly(I:C) alone, 24 h

[Cl-].[Li+] [LiCl]
β-catenin translocation (β-catenin): induces
poly(I:C)-induced inflammatory response (NHEKs; NHEKs, 24 hours): inhibits

O=C(Nc1ccccc1)c1cc([N+](=O)[O-])ccc1Cl [GW9662]
OVA-induced expression of inflammatory factor (keratinocytes (NHEK)): significantly decreased
expression of IL-6 induced by poly(I:C) (NHEKs; NHEKs, 24 h): significantly inhibited
expression of TNF-α induced by poly(I:C) (NHEKs; NHEKs, 24 h): significantly inhibited

N.S=C(S)N1CCCC1 [PDTC]
expression of IL-6 induced by poly(I:C) (NHEKs; NHEKs, 24 h): inhibited
expression of TNF-α induced by poly(I:C) (NHEKs; NHEKs, 24 h): inhibited

poly(I:C)
p65 phosphorylation (p65 [1]): significantly induces
interaction between PPAR-γ and P65 (PPAR-γ and p65): significantly induces
p65 translocation into the nucleus (p65 [2]; 4 hours): obviously induces
level of p65 in the nucleus (p65 [2]; 12 hours, Western blot): significantly increases
p65 translocation into the nucleus (p65 [2]; 12 hours): obviously induces
IL-6 expression (NHEKs; [3]): dramatically induces; also recorded: dramatically increases
TNF-α expression (NHEKs; [3]): dramatically induces; also recorded: dramatically increases
